Measured values as given in DBAASP.
≈ marks a conversion by molar mass, not a printed value. Where “and” joins values, the source holds several entries; their conditions need not be identical. Equal values may be shown once. One block for each compound: values may come before it.

Key:
Test in all cases: ≥ marks a high value that may be exact or a test limit, other limits are often not marked, values filed in µg/mL are converted to µM
[1] = system: Candida albicans NCYC 1467
[2] = system: Enterococcus faecalis NCTC 12697
[3] = system: Escherichia coli NCTC 10418
[4] = system: Klebsiella pneumoniae ATCC 43816
[5] = system: Pseudomonas aeruginosa ATCC 27853
[6] = system: Staphylococcus aureus NCTC 10788
[7] = system: Staphylococcus aureus NCTC 12493
Aureobasidium pullulans = system: Aureobasidium pullulans
[8] = system: Candida albicans ATCC 10231
[9] = system: Corynebacterium glutamicum ATCC 13032
[10] = system: Escherichia coli ATCC 25922
[11] = system: Staphylococcus aureus ATCC 9144
Escherichia coli MG1655 = system: Escherichia coli MG1655
[12] = system: Pseudomonas aeruginosa PA7
[13] = system: Pseudomonas aeruginosa PAO1
[14] = system: Staphylococcus aureus NCTC 8325
Escherichia coli K-12 = system: Escherichia coli K-12
[15] = system: Pseudomonas aeruginosa PA214
[16] = system: Pseudomonas aeruginosa PA287
[17] = system: Staphylococcus aureus SH1000
[18] = system: Acinetobacter baumannii 7226/16
[19] = system: Klebsiella pneumoniae ESBL 344/17
[20] = system: Pseudomonas aeruginosa 522/17
[21] = system: Staphylococcus aureus 1399/17
[22] = system: Staphylococcus aureus ATCC 33591
[23] = system: Staphylococcus aureus SG511

SMILES: CC[C@H](C)[C@@H]1NC(=O)[C@H](C)NC(=O)[C@@H](NC(=O)[C@H](Cc2ccccc2)NC(=O)[C@@H](NC(=O)[C@H](CCCCN)NC(=O)[C@@H]2CCCN2C(=O)[C@H](CC(C)C)NC(=O)[C@H](Cc2ccccc2)NC(=O)[C@H](CCCCN)NC(=O)[C@H](C)NC(=O)[C@H](C)NC(=O)[C@H](CC(C)C)NC(=O)CNC(=O)[C@H](C)NC(=O)[C@@H](NC(=O)[C@H](CC(C)C)NC(=O)[C@@H]2CCCN2C(=O)[C@H](CC(C)C)NC(=O)[C@@H](N)Cc2ccccc2)[C@@H](C)CC)[C@@H](C)CC)CSSC[C@@H](C(=O)O)NC(=O)[C@H](CCCCN)NC(=O)[C@H](CCCCN)NC(=O)[C@H]([C@@H](C)O)NC1=O [FLPLIAGLAAKFLPKIFCAITKKC]
MIC [1]: 4 µM (≈ 10.4 µg/mL)
MIC [2]: 8 µM (≈ 20.8 µg/mL)
MIC [3]: 8 µM (≈ 20.8 µg/mL)
MIC [4]: 16 µM (≈ 41.7 µg/mL)
MIC [5]: 32 µM (≈ 83.4 µg/mL)
MIC [6]: 4 µM (≈ 10.4 µg/mL)
MIC [7]: 16 µM (≈ 41.7 µg/mL)

SMILES: CC(C)C[C@H](NC(=O)[C@H](CCC(N)=O)NC(=O)[C@H](CCC(N)=O)NC(=O)[C@H](C)NC(=O)CNC(=O)[C@H](C)NC(=O)[C@H](CCCCN)NC(=O)CNC(=O)[C@@H](NC(=O)[C@H](CCC(N)=O)NC(=O)[C@H](CCCCN)NC(=O)[C@H](CCCCN)NC(=O)[C@H](CC(C)C)NC(=O)[C@H](Cc1ccc(O)cc1)NC(=O)[C@H](CCCCN)NC(=O)[C@H](C)NC(=O)CNC(=O)[C@H](C)NC(=O)[C@H](CCCCN)NC(=O)[C@H](Cc1ccccc1)NC(=O)[C@H](CC(C)C)NC(=O)[C@H](CO)NC(=O)[C@H](CO)NC(=O)[C@H](Cc1ccccc1)NC(=O)CN)C(C)C)C(N)=O [GFSSLFKAGAKYLKKQVGKAGAQQL]
MIC [1]: ≥ 64 µM
MIC [2]: 16 µM (≈ 42 µg/mL)
MIC [3]: 8 µM (≈ 21 µg/mL)
MIC [4]: ≥ 128 µM
MIC [5]: 16 µM (≈ 42 µg/mL)
MIC [6]: 16 µM (≈ 42 µg/mL)
MIC [7]: ≥ 64 µM

SMILES: CC(C)[C@H](NC(=O)[C@H](CCCCN)NC(=O)[C@H](C)NC(=O)[C@@H](NC(=O)[C@@H](NC(=O)[C@H](CCCN=C(N)N)NC(=O)[C@H](C)NC(=O)[C@H](Cc1c[nH]c2ccccc12)NC(=O)[C@H](Cc1c[nH]c2ccccc12)NC(=O)CN)[C@@H](C)O)C(C)C)C(=O)N[C@@H](CCCN=C(N)N)C(=O)N[C@@H](CCCCN)C(N)=O [GWWARTVAKVRK]
MIC (Aureobasidium pullulans): ≥ 50 µM
MIC [8]: 25 µM (≈ 36.4 µg/mL)
MIC [9]: 1.6 µM (≈ 2.33 µg/mL)
MIC [10]: 6.3 µM (≈ 9.18 µg/mL)
MIC [5]: 12.5 µM (≈ 18.2 µg/mL)
MIC [11]: ≥ 50 µM

SMILES: CC[C@H](C)[C@H](N)C(=O)N[C@@H](CCCCN)C(=O)N[C@H](C(=O)N1CCC[C@H]1C(=O)N1CCC[C@H]1C(=O)N[C@H](C(=O)N[C@H](C(=O)N[C@@H](CCCCN)C(=O)N[C@@H](CC(=O)O)C(=O)N[C@H](C(=O)N[C@@H](CC(C)C)C(=O)N[C@@H](CCCCN)C(=O)N[C@@H](CCCCN)C(=O)N[C@H](C(=O)N[C@@H](C)C(=O)N[C@@H](CCCCN)C(=O)NCC(=O)N[C@H](C(=O)N[C@@H](CC(C)C)C(=O)N[C@@H](CO)C(=O)N[C@H](C(=O)N[C@H](C(=O)N[C@@H](C)C(=O)N[C@@H](CC(=O)O)C(=O)N[C@@H](C)C(=O)N[C@@H](CC(C)C)C(=O)N[C@@H](CO)C(=O)N[C@@H](CCCCN)C(=O)N[C@@H](CO)C(=O)O)C(C)C)[C@@H](C)O)C(C)C)C(C)C)[C@@H](C)O)C(C)C)[C@@H](C)CC)[C@@H](C)CC [IKIPPIVKDTLKKVAKGVLSTVADALSKS]
MIC (Escherichia coli MG1655): 1 µM (≈ 3.02 µg/mL)
MIC [12]: 8 µM (≈ 24.2 µg/mL)
MIC [13]: 5.66 µM (≈ 17.1 µg/mL)
MIC [14]: ≥ 362 µM

SMILES: C[C@H](NC(=O)[C@H](C)NC(=O)[C@H](Cc1ccccc1)NC(=O)[C@H](C)NC(=O)[C@H](CCCCN)NC(=O)[C@H](C)NC(=O)[C@H](Cc1c[nH]c2ccccc12)NC(=O)[C@H](C)NC(=O)[C@H](CCCCN)NC(=O)[C@H](C)NC(=O)[C@H](Cc1ccccc1)NC(=O)[C@H](C)NC(=O)[C@H](C)NC(=O)[C@H](CCCCN)NC(=O)[C@H](CCCCN)NC(=O)[C@H](CCCCN)NC(=O)[C@@H](N)CCCCN)C(N)=O [KKKKAAFAKAWAKAFAA]
MIC (Escherichia coli K-12): 12.5 µM (≈ 22.9 µg/mL)
MIC [15]: ≥ 50 µM
MIC [16]: ≥ 50 µM
MIC [13]: 50 µM (≈ 91.8 µg/mL)

SMILES: C[C@H](NC(=O)[C@H](C)NC(=O)[C@H](Cc1ccccc1)NC(=O)[C@H](C)NC(=O)[C@H](C)NC(=O)[C@H](Cc1c[nH]c2ccccc12)NC(=O)[C@H](C)NC(=O)[C@H](CCCCN)NC(=O)[C@H](C)NC(=O)[C@H](Cc1ccccc1)NC(=O)[C@H](C)NC(=O)[C@H](C)NC(=O)[C@H](CCCCN)NC(=O)[C@H](CCCCN)NC(=O)[C@H](CCCCN)NC(=O)[C@H](CCCCN)NC(=O)[C@@H](N)CCCCN)C(N)=O [KKKKKAAFAKAWAAFAA]
MIC (Escherichia coli K-12): 6.3 µM (≈ 11.6 µg/mL)
MIC [15]: 25 µM (≈ 45.9 µg/mL)
MIC [16]: ≥ 50 µM
MIC [13]: 25 µM (≈ 45.9 µg/mL)

Continued, values first:

MIC [17]: ≥ 100 µM
SMILES: CC[C@H](C)[C@H](NC(=O)[C@H](CCCCN)NC(=O)[C@H](CC(C)C)NC(=O)[C@H](CC(C)C)NC(=O)[C@@H](N)CCCCN)C(=O)N[C@H](C(=O)N[C@@H](CCCCN)C(=O)N[C@@H](CCCCN)C(=O)N[C@H](C(=O)N[C@H](C(=O)NCC(=O)N[C@@H](C)C(=O)N[C@@H](CC(C)C)C(=O)NCC(N)=O)C(C)C)C(C)C)C(C)C [KLLKIVKKVVGALG]

MIC (Escherichia coli MG1655): 1 µM (≈ 3.1 µg/mL)
MIC [12]: 4 µM (≈ 12.4 µg/mL)
MIC [13]: 4 µM (≈ 12.4 µg/mL)
MIC [14]: ≥ 128 µM
SMILES: CC[C@H](C)[C@H](NC(=O)[C@H](CCC(=O)O)NC(=O)[C@H](CCCCN)NC(=O)[C@H](C)NC(=O)[C@@H](NC(=O)[C@H](CCCCN)NC(=O)[C@H](CCCCN)NC(=O)[C@H](CC(C)C)NC(=O)[C@@H](NC(=O)[C@H](CC(=O)O)NC(=O)[C@H](CCCN=C(N)N)NC(=O)[C@@H](NC(=O)[C@H](Cc1ccccc1)NC(=O)CNC(=O)[C@@H]1CCCN1C(=O)[C@@H](NC(=O)[C@H](CCCCN)NC(=O)[C@@H](N)CC(C)C)[C@@H](C)CC)C(C)C)[C@@H](C)O)C(C)C)C(=O)N[C@@H](Cc1ccccc1)C(=O)N[C@@H](CO)C(=O)N[C@@H](C)C(=O)N[C@H](C(=O)N[C@H](C(=O)NCC(=O)N[C@@H](C)C(=O)N[C@H](C(=O)N[C@H](C(=O)N[C@@H](CCC(N)=O)C(=O)N[C@@H](CO)C(=O)O)[C@@H](C)O)C(C)C)[C@@H](C)O)C(C)C [LKIPGFVRDTLKKVAKEIFSAVTGAVTQS]

MIC [18]: 8 µM and 12.5 µM
MIC [19]: 8 µM and 6.2 µM
MIC [20]: 16 µM (≈ 37.1 µg/mL)
MIC [21]: 4 µM and 6.2 µM
MIC [22]: 8 µM (≈ 18.6 µg/mL)
MIC [23]: 0.5 µM (≈ 1.16 µg/mL)
SMILES: CC[C@H](C)[C@H](NC(=O)[C@H](CCCN=C(N)N)NC(=O)[C@@H](NC(=O)[C@@H]1CCCN1C(=O)[C@@H]1CCCN1C(=O)[C@H](CCCN=C(N)N)NC(=O)[C@H](CCCN=C(N)N)NC(=O)[C@H](Cc1ccccc1)NC(=O)[C@@H]1CCCN1C(=O)[C@H](CC(C)C)NC(=O)[C@H](CCCN=C(N)N)NC(=O)[C@H](Cc1ccccc1)NC(=O)[C@H](CCCN=C(N)N)NC(=O)[C@H](CCCN=C(N)N)NC(=O)[C@H](Cc1ccccc1)NC(=O)[C@@H](N)CCCN=C(N)N)[C@@H](C)CC)C(=O)N[C@@H](Cc1cnc[nH]1)C(N)=O [RFRRFRLPFRRPPIRIH]
